Measured values: patent US20170107179A1 (Tetraphase Pharmaceuticals, Inc., priority 2010, published 2017)
In brackets after ≈: the same amount, converted by molar mass. Where two headings read alike, the source gives them in different places.

What was measured:
[1] = test system: Gram-negative and Gram-positive organisms (clinical isolates); test: Broth microdilution MIC against clinical isolates (CLSI M7-A8), Table 9; type: cell-based
[2] = test system: Viridans group streptococci; test: Broth microdilution MIC by tetracycline resistance phenotype (Table 10); type: cell-based; set-up: unit not given beside the values
[3] = test system: E. coli DH10B EC971 LacZ; test: MIC, E. coli DH10B recombinantly expressing control gene
[4] = test system: evaluated pathogens by tetracycline phenotype; test: Broth microdilution MIC by tetracycline phenotype (Table 14)
[5] = test system: E. coli DH10B EC1153 Tet(X); test: MIC, E. coli DH10B recombinantly expressing tetracycline-resistance gene; conditions: arabinose-induced, ampicillin in medium
[6] = test system: E. coli DH10B EC969 TetM; test: as above; conditions: arabinose-induced, ampicillin in medium
[7] = test system: E. coli DH10B EC970 TetK; test: as above; conditions: arabinose-induced, ampicillin in medium
[8] = test system: E. coli DH10B EC1082 TetA; test: as above; conditions: arabinose-induced, ampicillin in medium
[9] = test system: E. coli DH10B EC1083 TetB; test: as above; conditions: arabinose-induced, ampicillin in medium
[10] = test system: S. pneumoniae strain SP514; test: Immunocompetent CD-1 murine lung infection model; type: in vivo; conditions: immunocompetent CD-1 mice, SP514, orally dosed 30 mg/kg at 5, 24 and 36 hours post-infection (FIG. 2)
Experimental: Compound 102 was tested in an immunocompetent CD-1 murine model of lung infection challenged with S. pneumoniae strain SP514.

[11] = test system: H. influenzae HI551; test: Rat lung infection model; type: in vivo; conditions: H. influenzae intratracheal, 50 mg/kg orally at 5, 24, 48 hours
[12] = test system: S. maltophila; test: Broth microdilution MIC by tetracycline resistance phenotype (Table 10); type: cell-based; set-up: unit not given beside the values
[13] = test system: Legionella pneumophila, 70 isolates, serogroups 1-6; test: microbe, parasite or virus in culture; type: cell-based
[14] = Klebsiella aerogenes, Enterobacter aerogenes, n=30
[15] = Klebsiella pneumoniae, Klebsiella pneumonia, n=27
[16] = Staphylococcus aureus, Staphylococcus aureus (MRSA PVL+), n=30, read-out: MIC50
[17] = Staphylococcus aureus, Staphylococcus aureus (MRSA PVL+), n=30, read-out: MIC90
[18] = Staphylococcus aureus, Staphylococcus aureus MRSA (includes MRSA PVL+ group), n=105, read-out: MIC50
[19] = Staphylococcus aureus, Staphylococcus aureus MRSA (includes MRSA PVL+ group), n=105, read-out: MIC90
[20] = Stenotrophomonas maltophilia, n=29
[21] = Streptococcus intermedius, n=30
[22] = Enterococcus faecium, E. faecium, TET NS, N=40
[23] = Enterococcus faecium, E. faecium, TET S, N=60
[24] = Streptococcus agalactiae, S. agalactiae, TET NS, N=39
[25] = Streptococcus agalactiae, S. agalactiae, TET S, N=11
[26] = Streptococcus pneumoniae, S. pneumoniae, TET NS, N=46
[27] = Streptococcus pneumoniae, S. pneumoniae, TET S, N=54
[28] = Streptococcus pyogenes, S. pyogenes, TET S, N=44

## CN(C)c1cc(NC(=O)CNC(C)(C)C)c(O)c2c1C[C@H]1C[C@H]3[C@H](N(C)C)C(O)=C(C(N)=O)C(=O)[C@@]3(O)C(O)=C1C2=O [Tigecycline, tigecycline]
[1]; Acinetobacter lwoffii, n=29
  MIC50: 0.12 µg/mL (≈ 0.205 µM)
  MIC90: 0.5 µg/mL (≈ 0.854 µM)
[1]; Enterobacter cloacae, n=29
  MIC50: 1 µg/mL (≈ 1.71 µM)
  MIC90: 4 µg/mL (≈ 6.83 µM)
[1]; Escherichia coli, n=40
  MIC50: 0.5 µg/mL (≈ 0.854 µM)
  MIC90: 2 µg/mL (≈ 3.41 µM)
[1]; Kiebsielia oxytoca, n=30
  MIC50: 0.5 µg/mL (≈ 0.854 µM)
  MIC90: 2 µg/mL (≈ 3.41 µM)
[1]; [14]
  MIC50: 0.5 µg/mL (≈ 0.854 µM)
  MIC90: 0.5 µg/mL (≈ 0.854 µM)
[1]; [15]
  MIC50: 2 µg/mL (≈ 3.41 µM)
  MIC90: 4 µg/mL (≈ 6.83 µM)
[1]; Morganella morganii, n=30
  MIC50: 2 µg/mL (≈ 3.41 µM)
  MIC90: 4 µg/mL (≈ 6.83 µM)
[1]; Proteus vulgaris, n=29
  MIC50: 2 µg/mL (≈ 3.41 µM)
  MIC90: 4 µg/mL (≈ 6.83 µM)
[1]; Salmonella species, n=30
  MIC50: 0.25 µg/mL (≈ 0.427 µM)
  MIC90: 0.5 µg/mL (≈ 0.854 µM)
[1]; Serratia marcescens, n=30
  MIC50: 1 µg/mL (≈ 1.71 µM)
  MIC90: 2 µg/mL (≈ 3.41 µM)
[1]; [16]
  MIC50: 0.12 µg/mL (≈ 0.205 µM)
[1]; [17]
  MIC90: 0.12 µg/mL (≈ 0.205 µM)
[1]; [18]
  MIC50: 0.13 µg/mL (≈ 0.222 µM)
[1]; [19]
  MIC90: 0.25 µg/mL (≈ 0.427 µM)
[1]; [20]
  MIC50: 0.5 µg/mL (≈ 0.854 µM)
  MIC90: 2 µg/mL (≈ 3.41 µM)
[1]; Streptococcus anginosus, n=20
  MIC50: 0.03 µg/mL (≈ 0.0512 µM)
  MIC90: 0.06 µg/mL (≈ 0.102 µM)
[1]; [21]
  MIC50: 0.03 µg/mL (≈ 0.0512 µM)
  MIC90: 0.12 µg/mL (≈ 0.205 µM)
[1]; Streptococcus mitis, n=29
  MIC50: 0.03 µg/mL (≈ 0.0512 µM)
  MIC90: 0.12 µg/mL (≈ 0.205 µM)
[1]; Streptococcus sanguis, n=18
  MIC50: 0.03 µg/mL (≈ 0.0512 µM)
  MIC90: 0.06 µg/mL (≈ 0.102 µM)
[2]; TET NS, n=32
  MIC50: 0.03
  MIC90: 0.12
[2]; TET S, n=65
  MIC50: 0.03
  MIC90: 0.06
[3]; E. coli DH10B, arabinose-induced, ampicillin in medium
  MIC EC971 LacZ: 0.0625
[4]; [22]
  MIC50: 0.06 µg/mL (≈ 0.102 µM)
  MIC90: 0.12 µg/mL (≈ 0.205 µM)
[4]; [23]
  MIC50: 0.06 µg/mL (≈ 0.102 µM)
  MIC90: 0.06 µg/mL (≈ 0.102 µM)
[4]; F. faecalis, TET NS, N=71
  MIC50: 0.12 µg/mL (≈ 0.205 µM)
  MIC90: 0.12 µg/mL (≈ 0.205 µM)
[4]; F. faecalis, TET S, N=30
  MIC50: 0.06 µg/mL (≈ 0.102 µM)
  MIC90: 0.12 µg/mL (≈ 0.205 µM)
[4]; [24]
  MIC50: 0.12 µg/mL (≈ 0.205 µM)
  MIC90: 0.12 µg/mL (≈ 0.205 µM)
[4]; [25]
  MIC50: 0.12 µg/mL (≈ 0.205 µM)
  MIC90: 0.12 µg/mL (≈ 0.205 µM)
[4]; [26]
  MIC50: 0.06 µg/mL (≈ 0.102 µM)
  MIC90: 0.06 µg/mL (≈ 0.102 µM)
[4]; [27]
  MIC50: 0.06 µg/mL (≈ 0.102 µM)
  MIC90: 0.06 µg/mL (≈ 0.102 µM)
[4]; Streptococcus pyogenes, S. pyogenes, TET NS, N=6
  MIC50: 0.06 µg/mL (≈ 0.102 µM)
[4]; [28]
  MIC50: 0.06 µg/mL (≈ 0.102 µM)
  MIC90: 0.06 µg/mL (≈ 0.102 µM)
[5]
  MIC EC1153 Tet(X): 2
[6]
  MIC EC969 TetM: 0.125
[7]
  MIC EC970 TetK: 0.0625
[8]
  MIC EC1082 TetA: 1
[9]
  MIC EC1083 TetB: 0.0625

## CC(=O)NC[C@H]1CN(c2ccc(N3CCOCC3)c(F)c2)C(=O)O1 [linezolid, Linezolid]
[10]
  log10 reduction in CFU versus the 48 hour untreated control: 3.56±0.63 log10
[1]; [16]
  MIC50: 1 µg/mL (≈ 2.96 µM)
[1]; [17]
  MIC90: 2 µg/mL (≈ 5.93 µM)
[1]; [18]
  MIC50: 2 µg/mL (≈ 5.93 µM)
[1]; [19]
  MIC90: 4 µg/mL (≈ 11.9 µM)
[1]; Streptococcus anginosus, n=20
  MIC50: 0.5 µg/mL (≈ 1.48 µM)
  MIC90: 1 µg/mL (≈ 2.96 µM)
[1]; [21]
  MIC50: 1 µg/mL (≈ 2.96 µM)
  MIC90: 1 µg/mL (≈ 2.96 µM)
[1]; Streptococcus mitis, n=29
  MIC50: 1 µg/mL (≈ 2.96 µM)
  MIC90: 1 µg/mL (≈ 2.96 µM)
[1]; Streptococcus sanguis, n=18, read-out: MIC50
  MIC50: 0.5 µg/mL (≈ 1.48 µM)
[1]; Streptococcus sanguis, n=18, read-out: MIC90
  MIC90: 1 µg/mL (≈ 2.96 µM)

## CC[C@H]1OC(=O)[C@H](C)[C@@H](O[C@H]2C[C@@](C)(OC)[C@@H](O)[C@H](C)O2)[C@H](C)[C@@H](O[C@@H]2O[C@H](C)C[C@H](N(C)C)[C@H]2O)[C@](C)(O)C[C@@H](C)CN(C)[C@H](C)[C@@H](O)[C@]1(C)O [Azithromycin, azithromycin, reference compound]
[11]
  reduction in lung CFU, oral comparator: 6.24±0.03 log10

## CN(C)[C@@H]1C(O)=C(C(N)=O)C(=O)[C@@]2(O)C(O)=C3C(=O)c4c(O)cccc4[C@@](C)(O)[C@H]3C[C@@H]12 [Tetracycline, tetracycline]
[1]
  MIC50: 0.25 µg/mL (≈ 0.563 µM)
  MIC90: > 8 µg/mL
[1]; Acinetobacter lwoffii
  MIC50: 0.5 µg/mL (≈ 1.13 µM)
  MIC90: 4 µg/mL (≈ 9 µM)
[1]; Enterobacter cloacae
  MIC50: 4 µg/mL (≈ 9 µM)
  MIC90: > 8 µg/mL
[1]; Escherichia coli
  MIC50: > 8 µg/mL
  MIC90: > 8 µg/mL
[1]; Klebsiella aerogenes
  MIC50: 1 µg/mL (≈ 2.25 µM)
  MIC90: 2 µg/mL (≈ 4.5 µM)
[1]; Klebsiella pneumoniae
  MIC50: 8 µg/mL (≈ 18 µM)
  MIC90: > 8 µg/mL
[1]; Morganella morganii
  MIC50: 2 µg/mL (≈ 4.5 µM)
  MIC90: > 8 µg/mL
[1]; Proteus vulgaris
  MIC50: 8 µg/mL (≈ 18 µM)
  MIC90: > 8 µg/mL
[1]; Serratia marcescens
  MIC50: > 8 µg/mL
  MIC90: > 8 µg/mL
[1]; Staphylococcus aureus
  MIC50: 0.25 µg/mL (≈ 0.563 µM)
[1]; Stenotrophomonas maltophilia
  MIC50: 8 µg/mL (≈ 18 µM)
  MIC90: > 8 µg/mL
[1]; Streptococcus anginosus
  MIC50: 0.12 µg/mL (≈ 0.27 µM)
  MIC90: > 4 µg/mL
[1]; Streptococcus intermedius
  MIC50: 0.25 µg/mL (≈ 0.563 µM)
  MIC90: > 4 µg/mL
[1]; Streptococcus mitis
  MIC50: 0.5 µg/mL (≈ 1.13 µM)
  MIC90: > 4 µg/mL
[12]; TET NS, n=19
  MIC50: >8
  MIC90: >8
[12]; TET S, n=10
  MIC50: 4
  MIC90: 4
[2]; TET NS, n=32
  MIC50: >4
  MIC90: >4
[2]; TET S, n=65
  MIC50: 0.25
  MIC90: 0.5
[13]
  MIC50: 4 µg/mL (≈ 9 µM)
  MIC90: 8 µg/mL (≈ 18 µM)
[3]
  MIC EC971 LacZ: 2
[4]; F. faecalis, TET S, N=30
  MIC90: 500 µg/mL (≈ 1130 µM)
[4]; [26]
  MIC50: 16000 µg/mL (≈ 36000 µM)
[5]
  MIC EC1153 Tet(X): >32
[6]
  MIC EC969 TetM: 64
[7]
  MIC EC970 TetK: 64
[8]
  MIC EC1082 TetA: >128
[9]
  MIC EC1083 TetB: >128
